EC50 and Emax data for 22 compounds are collected here from patent US20240368120A1 (Terns Pharmaceuticals, Inc., priority 2023, published 2024).

This experiment deals with T1, human GLP-1R receptor (Homo sapiens, UniProt P43220).
T1 construct: expressed in transfected cells
The experiment can be described thus: GLP-1R low expression cell assay (cAMP TR-FRET, CHO-K1_hGLP-1Rlow_clone10 cells). The class given is cell-based. To be noted: for EC50: cAMP TR-FRET, 30 min at 25° C.; for Emax: maximum activation relative to control GLP-1 peptide agonist. The procedure, abridged:
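Readout is cAMP TR-FRET after 30 min compound stimulation at 25 °C of a low-GLP-1R-expressing CHO-K1 clone (1,000 cells/well), with 10-point 3-fold serial dilutions. Percent activation versus a control GLP-1 peptide, from duplicates, was Hill-fitted to give EC50.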

The structures appear in SMILES notation.

T1 sequence (P43220 24-463): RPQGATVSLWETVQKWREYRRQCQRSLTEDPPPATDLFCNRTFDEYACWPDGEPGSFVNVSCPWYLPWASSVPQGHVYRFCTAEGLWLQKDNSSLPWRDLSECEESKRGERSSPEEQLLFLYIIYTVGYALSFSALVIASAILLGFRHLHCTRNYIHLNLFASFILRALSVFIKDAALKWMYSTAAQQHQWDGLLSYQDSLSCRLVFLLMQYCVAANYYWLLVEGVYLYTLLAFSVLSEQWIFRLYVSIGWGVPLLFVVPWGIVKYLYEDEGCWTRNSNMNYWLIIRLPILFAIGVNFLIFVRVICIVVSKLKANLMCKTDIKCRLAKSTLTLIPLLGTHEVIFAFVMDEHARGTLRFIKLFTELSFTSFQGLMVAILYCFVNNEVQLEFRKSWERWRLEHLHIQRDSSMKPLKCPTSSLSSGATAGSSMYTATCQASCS

For `COc1cc(C(=O)O)cc2c1nc([C@H](C)N1CCC(c3cccc4c3O[C@@](C)(c3ccc(Cl)cn3)O4)CC1)n2C` [Compound 96, 2-((S)-1-(4-((S)-2-(5-Chloropyridin-2-yl)-2-methylbenzo[d][1,3]dioxol-4-yl)piperidin-1-yl)ethyl)-4-methoxy-1-methyl-1H-benzo[d]imidazole-6-carboxylic acid], the concentration for a half-maximal effect (EC50) fell in the range of 10 to 100 nM and the Emax was above 85%.
The matching figures for `COc1cc(C(=O)O)nc2c1nc(CN1CCC(c3cccc(OCc4ccc(C#N)cc4F)n3)CC1)n2C` [Compound 323, 2-((4-(6-((4-Cyano-2-fluorobenzyl)oxy)pyridin-2-yl)piperidin-1-yl)methyl)-7-methoxy-3-methyl-3H-imidazo[4,5-b] pyridine-5-carboxylic acid]: 10 to 100 nM and above 85%.
The matching figures for `Cn1c(CN2CCC(n3nccc3OCc3ccc(Cl)cc3F)CC2)nc2c(OC(F)F)cc(C(=O)O)cc21` [Compound 200, 2-((4-(5-((4-Chloro-2-fluorobenzyl)oxy)-1H-pyrazol-1-yl)piperidin-1-yl)methyl)-4-(difluoromethoxy)-1-methyl-1H-benzo[d]imidazole-6-carboxylic acid]: above 1000 nM and above 85%.
For `Cn1c(CN2CCC(c3cccc(COc4ccc(Cl)cc4F)n3)C2)nc2c(OC(F)F)cc(C(=O)O)cc21` (stereo not drawn) [Compound 362, 2-((3-(6-((4-Chloro-2-fluorophenoxy)methyl)pyridin-2-yl)pyrrolidin-1-yl)methyl)-4-(difluoromethoxy)-1-methyl-1H-benzo[d]imidazole-6-carboxylic acid], in that order: above 1000 nM and 50 to 85%.
For the compound `COc1cc(C#N)ccc1COc1cccc(C2CCN(Cc3nc4c(OC)cc(C(=O)O)cc4n3C)CC2)n1` [Compound 344, 2-((4-(6-((4-Cyano-2-methoxybenzyl)oxy)pyridin-2-yl)piperidin-1-yl)methyl)-4-methoxy-1-methyl-1H-benzo[d]imidazole-6-carboxylic acid], the concentration giving a half-maximal response (EC50) is below 10 nM and the Emax is above 85%.
For `Cn1c(CN2CCC(c3cccc(OCc4ccc(C5COC5)cc4F)n3)CC2)nc2c(OC(F)F)cc(C(=O)O)cc21` [Compound 141, 4-(Difluoromethoxy)-2-((4-(6-((2-fluoro-4-(oxetan-3-yl)benzyl)oxy)pyridin-2-yl)piperidin-1-yl)methyl)-1-methyl-1H-benzo[d]imidazole-6-carboxylic acid], in that order: 10 to 100 nM and above 85%.
In turn, `Cn1c(Cc2cc(F)c(-c3cccc(OCc4ccc(Cl)cc4F)n3)cc2F)nc2c(OC(F)F)cc(C(=O)O)cc21` [Compound 197, 2-(4-(6-((4-Chloro-2-fluorobenzyl)oxy)pyridin-2-yl)-2,5-difluorobenzyl)-4-(difluoromethoxy)-1-methyl-1H-benzo[d]imidazole-6-carboxylic acid] registered a 50% effective concentration (EC50) below 10 nM and an Emax above 85%.
With `COc1cc(C(=O)O)cc2c1nc(CN1CCC(c3cccc4c3O[C@H](c3ccc(C#N)cc3F)CO4)CC1)n2Cc1cncs1` [Compound 91, (R)-2-((4-(3-(4-cyano-2-fluorophenyl)-2,3-dihydrobenzo[b][1,4]dioxin-5-yl)piperidin-1-yl)methyl)-4-methoxy-1-(thiazol-5-ylmethyl)-1H-benzo[d]imidazole-6-carboxylic acid], the EC50 was in the range of 100 to 1000 nM and the Emax is above 85%.
In turn, `Cn1c(CN2CCC(c3cccc4c3O[C@H](c3ccc(C#N)cc3F)CO4)CC2)nc2c(OC(F)F)cc(C(=O)O)cc21` [Compound 124, (R)-2-((4-(3-(4-Cyano-2-fluorophenyl)-2,3-dihydrobenzo[b][1,4]dioxin-5-yl)piperidin-1-yl)methyl)-4-(difluoromethoxy)-1-methyl-1H-benzo[d]imidazole-6-carboxylic acid] displayed an EC50 above 1000 nM and an Emax of 25 to 50%.
With `Cc1ccc(COc2cccc(C3CCN(Cc4nc5c(OC(F)F)cc(C(=O)O)cc5n4C)CC3)n2)c(F)c1` [Compound 238, 4-(Difluoromethoxy)-2-((4-(6-((2-fluoro-4-methylbenzyl)oxy)pyridin-2-yl)piperidin-1-yl)methyl)-1-methyl-1H-benzo[d]imidazole-6-carboxylic acid], the EC50 fell in the range of 10 to 100 nM and the Emax is above 85%.
The matching figures for `COc1c(F)c(C(=O)O)cc2c1nc(CN1CCC(c3cccc(OCc4ccc(Cl)cc4F)n3)CC1)n2C` [Compound 337, 2-((4-(6-((4-Chloro-2-fluorobenzyl)oxy)pyridin-2-yl)piperidin-1-yl)methyl)-5-fluoro-4-methoxy-1-methyl-1H-benzo[d]imidazole-6-carboxylic acid]: 10 to 100 nM and above 85%.
In turn, `COc1ccc(COc2cccc(C3CCN(Cc4nc5c(OC(F)F)cc(C(=O)O)cc5n4C)CC3)n2)c(F)c1` [Compound 228, 4-(Difluoromethoxy)-2-((4-(6-((2-fluoro-4-methoxybenzyl)oxy)pyridin-2-yl)piperidin-1-yl)methyl)-1-methyl-1H-benzo[d]imidazole-6-carboxylic acid] registered an EC50 of 10 to 100 nM and an Emax above 85%.
In turn, `COc1cc(C(=O)O)cc2c1nc(CN1CCC(c3cccc4c3O[C@@](C)(c3ccc(Cl)cn3)O4)CC1)n2Cc1cncs1` [Compound 32, (S)-2-((4-(2-(5-Chloropyridin-2-yl)-2-methylbenzo[d][1,3]dioxol-4-yl)piperidin-1-yl)methyl)-4-methoxy-1-(thiazol-5-ylmethyl)-1H-benzo[d]imidazole-6-carboxylic acid] gave an EC50 below 10 nM.
The same measure, in the same setting: in the case of `COc1cc(C(=O)O)cc2c1nc(CN1CC[C@@H](c3cccc(OCc4ccc(C#N)cc4F)n3)[C@@H]3C[C@@H]31)n2C[C@@H]1CCO1` [Compound 387, 2-(((1S,5R,6S)-5-(6-((4-cyano-2-fluorobenzyl)oxy)pyridin-2-yl)-2-azabicyclo[4.1.0]heptan-2-yl)methyl)-4-methoxy-1-(((S)-oxetan-2-yl)methyl)-1H-benzo[d]imidazole-6-carboxylic acid] it was below 10 nM.
As for `Cn1c(CN2CCC(c3cccc(OCc4ccc(Cl)c5c4OCC5)n3)CC2)nc2c(OC(F)F)cc(C(=O)O)cc21` [Compound 331, 2-((4-(6-((4-Chloro-2,3-dihydrobenzofuran-7-yl)methoxy)pyridin-2-yl)piperidin-1-yl)methyl)-4-(difluoromethoxy)-1-methyl-1H-benzo[d]imidazole-6-carboxylic acid], the EC50 fell in the range of 10 to 100 nM and the Emax is above 85%.
In turn, `Cn1c(CN2CCC(c3nccc(OCc4ccc(Cl)cc4F)n3)CC2)nc2c(OC(F)F)cc(C(=O)O)cc21` [Compound 168, 2-((4-(4-((4-Chloro-2-fluorobenzyl)oxy)pyrimidin-2-yl)piperidin-1-yl)methyl)-4-(difluoromethoxy)-1-methyl-1H-benzo[d]imidazole-6-carboxylic acid] yielded an EC50 of 10 to 100 nM and an Emax above 85%.
With `N#Cc1ccc(COc2cccc(C3CCN(Cc4nc5c6c(c(C(=O)O)cc5n4C[C@@H]4CCO4)OCCO6)CC3)n2)c(F)c1` [Compound 100, (S)-2-((4-(6-((4-Cyano-2-fluorobenzyl)oxy)pyridin-2-yl)piperidin-1-yl)methyl)-3-(oxetan-2-ylmethyl)-7,8-dihydro-3H-[1,4]dioxino[2′,3′:3,4]benzo[1,2-d]imidazole-5-carboxylic acid], the EC50 was below 10 nM and the Emax was above 85%.
For the compound `COc1cc(C(=O)O)cc2c1nc(CN1CCN(c3cccc(OCc4ccc(Cl)cc4F)n3)CC1)n2C` [Compound 383, 2-((4-(6-((4-Chloro-2-fluorobenzyl)oxy)pyridin-2-yl)piperazin-1-yl)methyl)-4-methoxy-1-methyl-1H-benzo[d]imidazole-6-carboxylic acid], the EC50 fell in the range of 10 to 100 nM and the maximal response (Emax) was above 85%.
`COc1c(OCc2ccc(C#N)cc2F)cccc1C1CCN(Cc2nc3c(OC(F)F)cc(C(=O)O)cc3n2C)CC1` [Compound 144, 2-((4-(3-((4-Cyano-2-fluorobenzyl)oxy)-2-methoxyphenyl)piperidin-1-yl)methyl)-4-(difluoromethoxy)-1-methyl-1H-benzo[d]imidazole-6-carboxylic acid] came in with an EC50 above 1000 nM and an Emax below 25%.
In the case of `COc1cc(C(=O)O)cc2c1nc(CN1CCC(c3cccc4c3O[C@@H](c3ccc(Cl)cc3F)CO4)CC1)n2C` [Compound 268, (S)-2-((4-(3-(4-Chloro-2-fluorophenyl)-2,3-dihydrobenzo[b][1,4]dioxin-5-yl)piperidin-1-yl)methyl)-4-methoxy-1-methyl-1H-benzo[d]imidazole-6-carboxylic acid], the EC50 was below 10 nM and the Emax is above 85%.
For the compound `COCCOc1cc(C(=O)O)cc2nc(CN3CCC(c4cccc5c4O[C@@](C)(c4ccc(Cl)cn4)O5)CC3)n(C)c12` [Compound 76, (S)-2-((4-(2-(5-Chloropyridin-2-yl)-2-methylbenzo[d][1,3]dioxol-4-yl)piperidin-1-yl)methyl)-7-(2-methoxyethoxy)-1-methyl-1H-benzo[d]imidazole-5-carboxylic acid], the EC50 was above 1000 nM and the Emax is 50 to 85%.
In the case of `[2H]C([2H])([2H])Oc1cc(C(=O)O)cc2c1nc(CN1CCC(c3cccc4c3O[C@@](C)(c3ccc(Cl)cn3)O4)CC1)n2C[C@@H]1CCO1` [Compound 98, 2-((4-((S)-2-(5-chloropyridin-2-yl)-2-methylbenzo[d][1,3]dioxol-4-yl)piperidin-1-yl)methyl)-4-(methoxy-d3)-1-(((S)-oxetan-2-yl)methyl)-1H-benzo[d]imidazole-6-carboxylic acid], the EC50 was below 10 nM and the maximal response (Emax) is above 85%.
